In general, IC50 refers to the midpoint of a concentration-inhibition curve.

Where only a bound is given, the exact number is not on record here.

The target in this assay is T1, AXL (human catalytic domain) (Homo sapiens, UniProt P30530).
T1 construct: purchased Upstate Ltd. 14-512
T1 sequence (P30530 473-894): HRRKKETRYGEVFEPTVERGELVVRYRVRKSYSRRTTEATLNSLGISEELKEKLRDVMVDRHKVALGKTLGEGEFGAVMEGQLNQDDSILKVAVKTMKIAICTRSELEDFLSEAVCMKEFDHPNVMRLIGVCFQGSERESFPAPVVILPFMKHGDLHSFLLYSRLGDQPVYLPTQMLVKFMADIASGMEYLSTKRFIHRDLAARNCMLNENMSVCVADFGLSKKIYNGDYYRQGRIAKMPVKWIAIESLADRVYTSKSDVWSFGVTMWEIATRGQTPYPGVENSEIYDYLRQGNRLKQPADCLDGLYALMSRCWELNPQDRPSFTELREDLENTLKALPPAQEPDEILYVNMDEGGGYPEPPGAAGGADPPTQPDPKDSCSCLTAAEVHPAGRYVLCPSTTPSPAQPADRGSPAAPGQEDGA
Description: AXL (human catalytic domain) Enzyme Activity Assay (IMAP fluorescence polarisation). In kind it is biochemical. To be noted: further data set (WW-001 through WW-169, XX-001 through XX-469, YY-001 through YY-016, ZZ-001 through ZZ-003); 150 μM ATP. A digest of the protocol: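 IMAP FP readout (Ex485/Em535, after overnight binding) measured inhibition of the human AXL catalytic domain (aa473-894, 15 nM final) acting on 100 nM 5FAM-CSK-tide at 150 μM ATP, equal to KM. Reactions ran 60 min at room temperature in pH 7.0 HEPES buffer; IC50 from 10-point curves.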
For orientation: Polarisation of emitted light reports the rotation of a fluorescent probe.

The molecule `Clc1ccc(Cn2cc(-c3cccc4nc(Nc5ccc(OCCN6CCCC6)cc5)nn34)cn2)cc1` [XX-304] registered an IC50 of no more than 100 nM.

`Cc1cc(Cn2cc(-c3cccc4nc(Nc5ccc(OCCN6CCCC6)cc5)nn34)cn2)no1` [XX-305] displayed an IC50 of 100 to 1000 nM.

Regarding `CC(c1ccccc1)n1cc(-c2cccc3nc(Nc4ccc(OCCN5CCCC5)cc4)nn23)cn1` (stereo not shown) [XX-306], the IC50 lay in the range of 100 to 1000 nM.

The molecule `OCCn1cc(-c2cccc3nc(Nc4ccc(OCCN5CCCC5)cc4)nn23)cn1` [XX-307, 2-(4-{2-[4-(2-Pyrrolidin-1-yl-ethoxy)-phenylamino]-[1,2,4]triazolo[1,5-a]pyridin-5-yl}-pyrazol-1-yl)-ethanol] returned an IC50 of 100 to 1000 nM.

Consider `NCc1cccc(-c2cccc3nc(Nc4ccc(OCCN5CCCC5)cc4)nn23)c1` [XX-308, [5-(3-Aminomethyl-phenyl)-[1,2,4]triazolo[1,5-a]pyridin-2-yl]-[4-(2-pyrrolidin-1-yl-ethoxy)-phenyl]-amine], for which the IC50 was 1000 to 10000 nM.

The molecule `c1ccc(-c2nnc(-c3cccc(-c4cccc5nc(Nc6ccc(OCCN7CCCC7)cc6)nn45)c3)o2)cc1` [XX-309, {5-[3-(5-Phenyl-[1,3,4]oxadiazol-2-yl)-phenyl]-[1,2,4]triazolo[1,5-a]pyridin-2-yl}-[4-(2-pyrrolidin-1-yl-ethoxy)-phenyl]-amine] registered an IC50 of 1000 to 10000 nM.

As to `O=C(c1cccc(-c2cccc3nc(Nc4ccc(OCCN5CCCC5)cc4)nn23)c1)c1ccc2c(c1)OCO2` [XX-310, Benzo[1,3]dioxol-5-yl-(3-{2-[4-(2-pyrrolidin-1-yl-ethoxy)-phenylamino]-[1,2,4]triazolo[1,5-a]pyridin-5-yl}-phenyl)-methanone], the IC50 fell in the range of 100 to 1000 nM.

As for `Cc1cc(-c2ccc3c(c2)OCCO3)n2nc(Nc3ccc(OCCN4CCCC4)cc3)nc2c1` [XX-311, [5-(2,3-Dihydro-benzo[1,4]dioxin-6-yl)-7-methyl-[1,2,4]triazolo[1,5-a]pyridin-2-yl]-[4-(2-pyrrolidin-1-yl-ethoxy)-phenyl]-amine], the concentration for half-maximal inhibition (IC50) was 100 to 1000 nM.

The molecule `c1cc(-c2ccc3c(c2)OCCO3)n2nc(Nc3ccc(OCCCN4CCCC4)cc3)nc2c1` [XX-312] registered an IC50 of no more than 100 nM.

`CCn1cc(-c2cccc3nc(Nc4ccc(OCCN5CCCC5)cc4)nn23)cn1` [XX-315] showed a half-inhibitory concentration (IC50) of 100 to 1000 nM.

`c1cc(-c2cnn(CC3CC3)c2)n2nc(Nc3ccc(OCCN4CCCC4)cc3)nc2c1` [XX-316]: the IC50 is no more than 100 nM.

On to `O=C(Cn1cc(-c2cccc3nc(Nc4ccc(OCCN5CCCC5)cc4)nn23)cn1)c1cccs1` [XX-317], for which the half-maximal inhibitory concentration (IC50) fell in the range of 100 to 1000 nM.

The molecule `CCCn1cc(-c2cccc3nc(Nc4ccc(OCCN5CCCC5)cc4)nn23)cn1` [XX-318] registered an IC50 of no more than 100 nM.

Regarding `CCC(CC)Cn1cc(-c2cccc3nc(Nc4ccc(OCCN5CCCC5)cc4)nn23)cn1` [XX-319], the IC50 is no more than 100 nM.

`CC[C@H](C)Cn1cc(-c2cccc3nc(Nc4ccc(OCCN5CCCC5)cc4)nn23)cn1` [XX-320]: the IC50 was no more than 100 nM.

On to `O=C(Nc1ccc(Cl)cc1)c1cccc(-c2cccc3nc(Nc4ccc(OCCN5CCCC5)cc4)nn23)c1` [XX-321], for which the IC50 lay within 1000 to 10000 nM.

For the molecule `O=C(Nc1cccc(Cl)c1)c1cccc(-c2cccc3nc(Nc4ccc(OCCN5CCCC5)cc4)nn23)c1` [XX-322], the IC50 was in the range of 1000 to 10000 nM.

Turning to `COc1ccc2nc(Nc3ccc(OCCN4CCCC4)cc3)nn2c1-c1ccc2c(c1)OCCO2` [XX-323, [5-(2,3-Dihydro-benzo[1,4]dioxin-6-yl)-6-methoxy-[1,2,4]triazolo[1,5-a]pyridin-2-yl]-[4-(2-pyrrolidin-1-yl-ethoxy)-phenyl]-amine], the IC50 was in the range of 1000 to 10000 nM.

Consider `CCCCS(=O)(=O)NCc1cccc(-c2cccc3nc(Nc4ccc(OCCN5CCCC5)cc4)nn23)c1` [XX-324, Butane-1-sulfonic acid 3-{2-[4-(2-pyrrolidin-1-yl-ethoxy)-phenylamino]-[1,2,4]triazolo[1,5-a]pyridin-5-yl}-benzylamide], for which the IC50 was in the range of 1000 to 10000 nM.

Source of the values: patent publication US8431596B2 (Cancer Research Technology Limited, priority 2007, dated 2013).
